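Test compounds were applied to cells in 96-well plates for 48 hours at 5 doses. Abbreviation: GI50, concentration required for 50% inhibition of growth.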 The source made the active and inactive calls. No stated cut-off is given here; in the data, active = GI50 up to about 1.1 µM and inactive = higher.
Tests used:
Assay in all cases: NCI tumour cell line growth inhibition, 48 h
LOX IMVI = test system: LOX IMVI
TK-10 = test system: TK-10
MOLT-4 = test system: MOLT-4
M14 = test system: M14
SF-295 = test system: SF-295
SK-MEL-28 = test system: SK-MEL-28
OVCAR-3 = test system: OVCAR-3
UO-31 = test system: UO-31
RPMI-8226 = test system: RPMI-8226
NCI-H460 = test system: NCI-H460
K562 = test system: K562
SNB-19 = test system: SNB-19
IGROV-1 = test system: IGROV-1
CCRF-CEM = test system: CCRF-CEM
CAKI-1 = test system: CAKI-1
A498 = test system: A498
SR = test system: SR

Measured: GI50

C#C[C@]1(O)CCC2C3CCc4cc(Oc5nc(F)nc(-c6c7cc8ccccc8cc7c7n6CCS7)n5)ccc4C3CCC21C (stereo partly drawn)
inactive: LOX IMVI 43 µM | TK-10 71.3 µM | MOLT-4 49.8 µM | M14 29.2 µM | SF-295 34 µM | SK-MEL-28 48.9 µM | OVCAR-3 44.7 µM | UO-31 > 100 µM | RPMI-8226 41.5 µM | NCI-H460 33.1 µM | K562 37.7 µM | SNB-19 > 100 µM | IGROV-1 50.7 µM | CCRF-CEM 49.3 µM

CSC(SC)=C1Sc2cccc(Cl)c2S1
inactive: LOX IMVI 42.6 µM | CAKI-1 43 µM | TK-10 76 µM | MOLT-4 31.8 µM | A498 76.4 µM | M14 82 µM | SF-295 56.5 µM | SK-MEL-28 > 100 µM | UO-31 52.5 µM | RPMI-8226 36.2 µM | NCI-H460 > 100 µM | K562 23.9 µM | SNB-19 85.1 µM | IGROV-1 > 100 µM | CCRF-CEM 28.8 µM

CCNC(=O)C(O)C1(O)CCC2[C@@H]3CCC4=CC(=O)C=C[C@]4(C)C3[C@@H](O)C[C@@]21C (stereo partly drawn)
inactive: LOX IMVI > 95.1 µM | CAKI-1 > 100 µM | TK-10 > 100 µM | MOLT-4 52.1 µM | M14 > 100 µM | SF-295 > 100 µM | SK-MEL-28 > 100 µM | OVCAR-3 > 100 µM | UO-31 > 100 µM | RPMI-8226 22.4 µM | NCI-H460 > 100 µM | K562 > 91 µM | SR 63 µM | SNB-19 > 100 µM | IGROV-1 > 100 µM | CCRF-CEM 32.8 µM

NC(=O)/C(=N\NC(=O)c1cc2ccccc2cc1O)C1C(=O)N(c2ccccc2)N=C1N (stereo not drawn)
inactive: LOX IMVI > 100 µM | TK-10 > 100 µM | MOLT-4 21.4 µM | A498 1.23 µM | M14 31.5 µM | SF-295 33 µM | SK-MEL-28 73.6 µM | OVCAR-3 28 µM | UO-31 7.73 µM | RPMI-8226 13.8 µM | NCI-H460 > 100 µM | SNB-19 65.3 µM | IGROV-1 21.1 µM | CCRF-CEM 11.7 µM

Cc1ccc(S(=O)(=O)OCOS(=O)(=O)c2ccc(C)cc2)cc1
inactive: LOX IMVI > 100 µM | TK-10 > 100 µM | MOLT-4 > 100 µM | M14 > 100 µM | SF-295 > 100 µM | SK-MEL-28 > 100 µM | OVCAR-3 > 100 µM | UO-31 > 100 µM | RPMI-8226 > 100 µM | NCI-H460 58.1 µM | K562 > 100 µM | SR > 100 µM | SNB-19 > 100 µM | IGROV-1 > 100 µM | CCRF-CEM > 100 µM

Cn1cc/c(=N\N=c2/ccn(C)c3ccccc23)c2ccccc21
inactive: LOX IMVI 11.9 µM | CAKI-1 17.9 µM | TK-10 19.1 µM | MOLT-4 27.1 µM | A498 18.5 µM | M14 16.9 µM | SF-295 16.1 µM | SK-MEL-28 15.2 µM | OVCAR-3 11.7 µM | UO-31 13.2 µM | NCI-H460 12.1 µM | K562 4.44 µM | SR 16.4 µM | SNB-19 16.9 µM | CCRF-CEM 6.31 µM

S=P1(c2ccccc2)Nc2ccc(Cl)cc2N1 (stereo not drawn)
inactive: LOX IMVI > 100 µM | CAKI-1 32.6 µM | TK-10 > 100 µM | MOLT-4 20 µM | A498 > 100 µM | M14 18.5 µM | SF-295 > 100 µM | SK-MEL-28 > 100 µM | OVCAR-3 > 100 µM | UO-31 56.4 µM | RPMI-8226 4.68 µM | NCI-H460 > 100 µM | K562 49.3 µM | SNB-19 > 100 µM | IGROV-1 35.5 µM | CCRF-CEM 4.45 µM

COc1cc2c3c(c1OC)/C(=N/OS(=O)(=O)c1ccc(C)cc1)CC3N(S(=O)(=O)c1ccc(C)cc1)CC2 (stereo not drawn)
inactive: LOX IMVI > 100 µM | CAKI-1 > 100 µM | TK-10 > 100 µM | A498 > 100 µM | M14 > 100 µM | SF-295 > 100 µM | SK-MEL-28 > 100 µM | OVCAR-3 > 100 µM | UO-31 > 100 µM | RPMI-8226 > 100 µM | NCI-H460 > 100 µM | K562 > 100 µM | SNB-19 > 100 µM | IGROV-1 > 100 µM | CCRF-CEM > 100 µM

O=C(Nc1cc([N+](=O)[O-])cc([N+](=O)[O-])c1)OC1C2CCC1C1OC1C2 (stereo not drawn)
inactive: TK-10 > 50 µM | MOLT-4 34.5 µM | A498 > 50 µM | M14 > 50 µM | SF-295 > 50 µM | SK-MEL-28 > 50 µM | OVCAR-3 29.6 µM | UO-31 19.9 µM | RPMI-8226 22.6 µM | NCI-H460 > 50 µM | K562 > 50 µM | SNB-19 > 50 µM | IGROV-1 > 50 µM | CCRF-CEM > 50 µM

Cc1cc2c(=O)cc(-c3ccc(Cl)cc3)oc2c(C(=O)O)c1C
inactive: LOX IMVI > 100 µM | CAKI-1 > 100 µM | TK-10 > 100 µM | MOLT-4 > 100 µM | M14 > 100 µM | SF-295 > 100 µM | SK-MEL-28 > 100 µM | OVCAR-3 > 100 µM | UO-31 > 100 µM | RPMI-8226 > 100 µM | NCI-H460 > 100 µM | K562 > 100 µM | SNB-19 > 100 µM | IGROV-1 > 100 µM | CCRF-CEM > 100 µM

CN(C)CCSc1cccc(-c2cc(-c3cccc(SCCN(C)C)c3)nc(SCCN(C)C)n2)c1
inactive: LOX IMVI 1.64 µM | TK-10 2.88 µM | MOLT-4 1.63 µM | M14 1.62 µM | SF-295 2 µM | SK-MEL-28 1.93 µM | OVCAR-3 10.2 µM | UO-31 12.8 µM | NCI-H460 1.85 µM | K562 1.49 µM | SR 1.82 µM | IGROV-1 3.37 µM | CCRF-CEM 1.69 µM

CCOC(=O)C1=C(NC)OC/C1=N\NC(=O)c1ccccc1O
inactive: LOX IMVI 15.2 µM | CAKI-1 17.1 µM | TK-10 > 100 µM | MOLT-4 22.9 µM | A498 > 100 µM | M14 22.5 µM | SF-295 50.9 µM | SK-MEL-28 30.8 µM | OVCAR-3 19.9 µM | UO-31 4.83 µM | RPMI-8226 32.3 µM | NCI-H460 28.2 µM | K562 18.6 µM | SNB-19 12.7 µM | IGROV-1 7.21 µM | CCRF-CEM 14.9 µM

Cc1cc(N(CCC#N)CCC#N)ccc1/N=N/c1ccc(S(N)(=O)=O)cc1
inactive: LOX IMVI > 100 µM | CAKI-1 28.4 µM | TK-10 > 100 µM | MOLT-4 > 100 µM | A498 > 100 µM | M14 > 100 µM | SF-295 > 100 µM | SK-MEL-28 > 100 µM | OVCAR-3 > 100 µM | UO-31 85.5 µM | RPMI-8226 > 100 µM | K562 > 100 µM | SNB-19 > 100 µM | IGROV-1 > 100 µM | CCRF-CEM > 100 µM
